Reference: US6627639B2, “Uses for indoletetrahydropyridine derivatives of 2,3-dihydro-7H-[1,4]dioxino-[2,3-e]indole” (Wyeth, priority 2001, dated 2003)

Columns and labels:
serotonin transporter = target: T1, serotonin transporter (Rattus norvegicus, UniProt P31652); experiment: 3H-paroxetine displacement, serotonin transporter affinity; assay type: binding
T1 construct: displace ^3H-paroxetine from male rat frontal cortical membranes; from tissue; host or cells: male rat frontal cortex membranes
T1 sequence (P31652 whole entry): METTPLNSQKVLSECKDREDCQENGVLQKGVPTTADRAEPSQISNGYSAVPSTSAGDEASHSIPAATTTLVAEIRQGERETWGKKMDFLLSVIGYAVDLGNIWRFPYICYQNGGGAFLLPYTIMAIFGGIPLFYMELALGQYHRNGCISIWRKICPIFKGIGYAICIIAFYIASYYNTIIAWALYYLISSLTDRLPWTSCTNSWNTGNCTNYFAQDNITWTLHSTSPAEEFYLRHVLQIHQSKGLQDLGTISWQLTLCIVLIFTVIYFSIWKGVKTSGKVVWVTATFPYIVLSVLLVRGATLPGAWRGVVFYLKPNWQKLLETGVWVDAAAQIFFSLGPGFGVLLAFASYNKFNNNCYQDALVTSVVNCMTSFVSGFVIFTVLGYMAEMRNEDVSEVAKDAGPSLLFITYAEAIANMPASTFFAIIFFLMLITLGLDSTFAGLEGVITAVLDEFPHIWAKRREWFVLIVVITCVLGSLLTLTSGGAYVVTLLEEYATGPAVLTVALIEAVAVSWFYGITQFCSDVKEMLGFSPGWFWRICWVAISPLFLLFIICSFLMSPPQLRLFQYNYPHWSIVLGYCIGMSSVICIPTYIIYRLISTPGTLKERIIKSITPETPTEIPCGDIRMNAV

human 5-HT1A receptors = target: T2, human 5-HT1A receptors (Homo sapiens, UniProt P08908); experiment: [3H] 8-OHDPAT displacement, 5-HT1A receptor affinity; assay type: binding
T2 construct: expressed in transfected cells; host or cells: CHO cells
T2 sequence (P08908 1-422): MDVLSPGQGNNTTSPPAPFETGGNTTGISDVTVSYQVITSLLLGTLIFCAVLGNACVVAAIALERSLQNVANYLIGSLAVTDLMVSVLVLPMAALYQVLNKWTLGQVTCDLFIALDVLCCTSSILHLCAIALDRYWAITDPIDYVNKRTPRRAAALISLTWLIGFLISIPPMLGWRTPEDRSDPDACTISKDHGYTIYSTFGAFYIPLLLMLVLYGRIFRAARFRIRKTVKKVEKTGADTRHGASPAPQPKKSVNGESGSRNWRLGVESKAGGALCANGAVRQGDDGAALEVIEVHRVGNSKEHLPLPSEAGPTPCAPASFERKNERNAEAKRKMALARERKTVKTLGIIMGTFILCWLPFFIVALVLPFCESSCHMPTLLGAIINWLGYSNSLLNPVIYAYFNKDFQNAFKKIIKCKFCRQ
Text: High affinity for the serotonin 5-HT1A receptor was established by testing the claimed compound's ability to displace [^3H] 8-OHDPAT (dipropylaminbtetralin) from the 5-HT1A serotonin receptor following a modification of the procedure of Hall et al., J. Neurochem. 44, 1685 (1985) which utilizes CHO cells stably transfected with human 5-HT1A receptors.

[1] = target: T3, cloned human 5-HT1A receptors (Homo sapiens, UniProt P08908); experiment: 35S-GTPγS binding assay, 5-HT1A antagonist function; assay type: biochemical; conditions: reversal of 8-OHDPAT effect on 35S-GTPγS binding
T3 construct: expressed in transfected cells
T3 sequence (P08908 1-422): T2 sequence (P08908 1-422)
Procedure: Antagonist activity at 5-HT1A receptors was established by using a ^35S-GTPγS binding assay similar to that used by Lazareno and Birdsall (Br. J. Pharmacol. 109: 1120, 1993), in which the test compound's ability to affect the binding of ^35S-GTPγS to membranes containing cloned human 5-HT1A receptors was determined. Agonists produce an increase in binding whereas antagonists produce no increase but rather reverse the effects of the standard agonist 8-OHDPAT. The test compound's maximum inhibitory effect is represented as the Imax, while its potency is defined by the IC50.

| Structure (SMILES) | melting point [°C] | Ki (serotonin transporter) [µM] | Ki (human 5-HT1A receptors) [µM] | 5-HT1A Function Imax (maximum inhibitory effect) [1] | IC50 [1] [µM] |
| --- | --- | --- | --- | --- | --- |
| CCc1cc2c3c(ccc2[nH]1)OCC(CN1CC=C(c2c[nH]c4ccccc24)CC1)O3 (stereo not shown) (hydrate or solvate) [Example 4, 8-Ethyl-2-[(4-(1H-indol-3-yl)-3,6-dihydropyridin-1(2H)-yl)methyl]-2,3-dihydro-7H-[1,4]dioxino[2,3-e]indole] | 175 to 177 |  |  |  |  |
| Fc1ccc2[nH]cc(C3=CCN(CC4COc5ccc6[nH]ccc6c5O4)CC3)c2c1 (stereo not shown) [Example 3, 2-{[4-(5-Fluoro-1H-indol-3-yl)-3,6-dihydropyridin-1(2H)-yl]methyl}-2,3-dihydro-7H-[1,4]dioxino[2,3-e]indole] | 112 | 0.00123 | 0.00245 | 100 | 0.0113 |
| C1=C(c2c[nH]c3ccccc23)CCN(CC2COc3ccc4[nH]ccc4c3O2)C1 (stereo not shown) [Example 2, 2-[(4-(1H-Indol-3-yl)-3,6-dihydropyridin-1(2H)-yl)methyl]-2,3-dihydro-7H-[1,4]dioxino[2,3-e]indole] | 126 | 0.00077 | 0.00155 | 52 | 0.023 |
| CCc1cc2c3c(ccc2[nH]1)OCC(CN1CC=C(c2c[nH]c4ccc(F)cc24)CC1)O3 (stereo not shown) [Example 5, 8-Ethyl-2-[(4-(5-fluoro-1H-indol-3-yl)-3,6-dihydropyridin-1(2H)-yl)methyl]2,3-dihydro-7H-[1,4]dioxino[2,3-e]indole] |  | 0.01 | 0.0263 | 98 | 0.265 |
| CCc1cc2c3c(ccc2[nH]1)OCC(CN1CC=C(c2c[nH]c4ccc(F)cc24)CC1)O3 (stereo not shown) (hydrate or solvate) [Example 5, 8-Ethyl-2-[(4-(5-fluoro-1H-indol-3-yl)-3,6-dihydropyridin-1(2H)-yl)methyl]2,3-dihydro-7H-[1,4]dioxino[2,3-e]indole] | 81 to 82 |  |  |  |  |
| CCc1cc2c3c(ccc2[nH]1)OCC(CN1CC=C(c2c[nH]c4ccccc24)CC1)O3 (stereo not shown) [Example 4, 8-Ethyl-2-[(4-(1H-indol-3-yl)-3,6-dihydropyridin-1(2H)-yl)methyl]-2,3-dihydro-7H-[1,4]dioxino[2,3-e]indole] |  | 0.01 | 0.00456 | 78 | 0.073 |
| Cc1cc2c3c(ccc2[nH]1)OCC(CN1CC=C(c2c[nH]c4ccccc24)CC1)O3 (stereo not shown) [Example 1, 2-[(4-(1H-Indol-3-yl)-3,6-dihydropyridin-1(2H)-yl)methyl]-8-methyl-2,3-dihydro-7H-[1,4]dioxino[2,3-e]indole] | 212 to 215 | 0.00344 | 0.00045 | 100 | 0.016 |
